Data reported in patent US20140039056A1, “BROMFENAC ORGANIC SALTS AND PREPARATION METHOD, COMPOSITION AND USE THEREOF” (SHENYANG XINGQI PHARMACEUTICAL CO., LTD., priority 2010, published 2014).
Counter-ions that a name gives are not always drawn. Like-named read-outs stand apart in the source and are kept apart here.

Experiments:
[1] = In vitro transdermal absorption test (diffusion cell, ex vivo rat skin); settings: for Accumulative osmolality: ex vivo rat skin, 32° C., n = 3; for Total osmolality of 24 h: 24 h accumulative osmolality x effective area 1.23 cm^2; for transdermal absorption amount relative to bromfenac sodium: in vitro; for Osmotic rate: slope of accumulative osmolality Q against time; for Osmotic percentage: total osmolality of 24 h / mass added to supplying chamber
Procedure: Preparation of solutions of bromfenac salts: bromfenac sodium, bromfenac diethylamine salt of Example 1, and bromfenac trometamol salt of Example 2 were precisely weighed separately to obtain 0.25 g samples, which were separately placed in 25 ml volumetric flasks, and phosphate buffered solution (pH value was 7.0) was used to reach the metered volume to obtain stock solutions for standby use.
Chromatography conditions: detector: ultraviolet absorption detector (wavelength: 266 nm). Chromatography column: octadecyl silica column (4.0 mm×150 mm, 5 μm). Mobile phase: precisely weighed ammonium acetate 3.85 g, added with water to the metered volume of 1000 mL. 600 mL of this solution was taken, and added with 250 mL of methanol and 150 mL of tetrahydrofuran. Flow rate: 1.5 mL/min.
Plotting standard curves: bromfenac sodium, bromfenac diethylamine salt and bromfenac trometamol salt in suitable amounts were precisely weighed separately, dissolved in mobile phase, diluted separately to form test solutions with concentrations of 10, 30, 60, 120, 300, 700 μg/ml, which were separately weighed precisely to take 20 μl and injected into chromatography and separately assayed.
Transdermal absorption test: ex vivo skins of back and abdomen of 200-260 g rats were taken and used as osmotic membranes, which were fixed with suture on diffusion cells (diffusion cells having a diameter of 1.25 cm, and an effective area of 1.23 cm^2). Stock solutions of bromfenac sodium, bromfenac diethylamine salt and bromfenac trometamol salt in an amount of 2 ml were separately added to supplying chamber, 100 ml of physiological saline was used as receiving solution in receiving cells, kept at a constant temperature of 32° C., stirred (250 r/min). 5 ml samples of receiving solutions were taken precisely with time intervals of 0, 2, 4, 6, 8, 10, 12, 24 hours, filtered, measured according to the above method to determine first-order light spectrum derivative absorption values and calculate contents, and accumulative osmolality Q was calculated according to the following formula;
In the above formula, c is concentration of receiving solution sample; v1 is volume of sample as taken at every turn; v2 is volume of diffusion cell; A is diffusion area. Diagrams were plotted by using t as abscissa, Q as ordinate to obtain osmosis curves of bromfenac sodium, bromfenac diethylamine salt and bromfenac trometamol salt; linear regression was performed using accumulative osmolality Q against time, the obtained slope K was transdermal osmotic rate; the accumulative osmolality of 24 hours was multiplied by the effective osmotic area (1.23 cm^2) to obtain total osmolality of 24 hours; and the total osmolality of 24 hours was divided by the mass of the added product in the supplying chamber to obtain osmotic percentage.

[2] = analgesic effect; cited from earlier work
[3] = cited from earlier work

Row | SMILES | Accumulative osmolality ([1]; 2 hours) [μg/cm^2] | Accumulative osmolality ([1]; 4 hours) [μg/cm^2] | Accumulative osmolality ([1]; 6 hours) [μg/cm^2] | Accumulative osmolality ([1]; 8 hours) [μg/cm^2] | Accumulative osmolality ([1]; 10 hours) [μg/cm^2] | Accumulative osmolality ([1]; 12 hours) [μg/cm^2] | Total osmolality of 24 h [1] [µg] | Accumulative osmolality ([1]; 24 hours) [μg/cm^2] | transdermal absorption amount relative to bromfenac sodium ([1]; 24 hours) [times] | Osmotic rate [1] [μg/cm^2 · h^−1] | Osmotic percentage [1] [%] | potency relative to other non-steroid anti-inflammatory agents [2] [times] | solubility ([3]; 0.1M hydrochloric acid solution) | solubility ([3]; acetone) | solubility ([3]; acetonitrile) | solubility ([3]; ethanol) | solubility ([3]; methanol) | solubility ([3]; water)
1 | Nc1c(CC(=O)O)cccc1C(=O)c1ccc(Br)cc1 [Bromfenac diethylamine salt, bromfenac diethylamine salt] | 322.8 | 964.1 | 1898.6 | 2721.8 | 3303.0 | 4123.6 | 10360.0 | 8426.7 | 1.85 | 369.04 | 51.80 |  |  |  |  |  |  | 
2 | Nc1c(CC(=O)[O-])cccc1C(=O)c1ccc(Br)cc1.[Na+] [Bromfenac sodium, 2-amino-3-(4-bromobenzoyl)phenylacetic acid sodium salt sesquialter hydrate, reference compound] | 45.5 | 118.5 | 340.8 | 708.6 | 1231.3 | 2214.5 | 5600.0 | 4554.1 |  | 219.05 | 28.0 | 10 | almost insoluble | almost insoluble | almost insoluble | slight soluble | soluble | soluble
3 | Nc1c(CC(=O)O)cccc1C(=O)c1ccc(Br)cc1 [Bromfenac trometamol salt, bromfenac trometamol salt] | 277.2 | 632.5 | 1268.3 | 2089.6 | 2736.1 | 3085.7 | 9010.0 | 7326.9 | 1.61 | 320.61 | 45.05 |  |  |  |  |  |  | 
